ChEMBL document CHEMBL4219042, “Advances in macrocyclic peptide-based antibiotics” (2018)

Columns and labels:
Assay type in all cases: functional
Escherichia coli [1] = test: Antibacterial activity against multidrug-resistant Escherichia coli 5237 after 16 to 20 hrs by agar dilution method
Escherichia coli [2] = test: Antibacterial activity against multidrug-resistant Escherichia coli 5353 after 16 to 20 hrs by agar dilution method
Escherichia coli [3] = test: Antibacterial activity against multidrug-resistant Escherichia coli 5364 after 16 to 20 hrs by agar dilution method
Escherichia coli [4] = test: Antibacterial activity against multidrug-resistant Escherichia coli 5539 after 16 to 20 hrs by agar dilution method
Pseudomonas aeruginosa [5] = test: Antibacterial activity against multidrug-resistant Pseudomonas aeruginosa 5215 after 16 to 20 hrs by agar dilution method
Pseudomonas aeruginosa [6] = test: Antibacterial activity against multidrug-resistant Pseudomonas aeruginosa 5298 after 16 to 20 hrs by agar dilution method
Pseudomonas aeruginosa [7] = test: Antibacterial activity against multidrug-resistant Pseudomonas aeruginosa 5313 after 16 to 20 hrs by agar dilution method
Pseudomonas aeruginosa [8] = test: Antibacterial activity against multidrug-resistant Pseudomonas aeruginosa 5510 after 16 to 20 hrs by agar dilution method
Pseudomonas aeruginosa [9] = test: Antibacterial activity against multidrug-resistant Pseudomonas aeruginosa 5585 after 16 to 20 hrs by agar dilution method

Measured: MIC

CCC(C)CCC(O)CC(=O)N[C@H](CCN)C(=O)N[C@H]1CCNC(=O)[C@H](CC(C)C)NC(=O)[C@H](CCN)NC(=O)[C@H](CCN)NC(=O)[C@@H](Cc2ccccc2)NC(=O)[C@H](CC(C)C)NC(=O)[C@H](CCN)NC1 (some centres undefined)
2 to 4 µg/mL: all assays above
